Results on four compounds are retold here after patent publication US20030108462A1, “Method of extracting contaminants from solid matter” (priority 2001, published 2003).

A short description of data set [1]: Chelating-agent leaching of comminuted CCA treated wood, chromium. The settings on record: weight basis, before being adjusted for moisture content. The procedure:
(§1) 32 grams of the comminuted treated wood was used to represent 1 mole of the contaminants, and was reacted with 1000 ml of 0.1 mole ethylenediamine-N,N,N′,N′-tetraacetic acid at a temperature of 70° C. for a period of 6 hours. The sample was agitated and allowed to settle periodically to thoroughly mix the wood and the solution, as well as to facilitate leaching. After the last settling period, the mixture stratified into a green colored supernatant which contained the chelated CCA components in soluble form at the top, and clean looking sawdust at the bottom of the reaction container.
(§2) Upon completion of reaction, the supernatant was decanted and retained. The solid section was allowed to drain freely for 15 minutes, after which 500 ml of fresh water was added and the mixture was periodically mixed and allowed to settle for a period of 30 minutes. Similarly, the mixture stratified into a light green solution and cleaner looking saw dust. The liquid was decanted and added to the previously decanted liquid. The settled solids were wrapped in a 250μ filter paper and subjected to a weight of 6 pounds per square inch and allowed to drain. Upon completion, the drained liquid was added to the previously decanted liquids and sent for laboratory analysis. The retained solids were oven dried and analyzed for the target contaminants.
(§3) 100 grams of the comminuted treated wood was used to represent 1 mole of the contaminants and reacted with 1000 mL of 0.1 mole EDTA disodium solution at 30° C. for 30 hours. […]
(§4) Upon completion of reaction, the supernatant was decanted and retained. […] The retained solids were oven dried and analyzed for the target contaminants. […]
(§5) Upon completion of reaction, the supernatant was decanted and retained The solid section was allowed to drain freely for 15 minutes, after which 500 ml of fresh water with a known quality was added and the mixture was periodically mixed and allowed to settle for a period of 30 minutes. […] The retained solids were oven dried and analyzed for the target contaminants.

Data set [2] in a line: Chelating-agent leaching of comminuted CCA treated wood, arsenic. To be noted: weight basis, before being adjusted for moisture content. The procedure:
as §1, §2, §3, §4, §5

Data set [3] in a line: Chelating-agent leaching of comminuted CCA treated wood, copper. To be noted: weight basis, before being adjusted for moisture content. Here is the method:
as §1, §2, §3, §4, §5

For data set [4] the following is noted: at 25° C.; cited from earlier work.

“And” between values parts separate entries of the source, which are not always exact repeats. Equal values may be shown once.

Consider `O=C([O-])CN(CCN(CC(=O)[O-])CC(=O)O)CC(=O)O.[Na+].[Na+]` [EXAMPLE 2, EDTA disodium], for which the “Percent Removal, Chromium” value in data set [1] stood at 90.86%. Further, in data set [2], the “Percent Removal, Arsenic” value is recorded as 96.36%. Moreover, the “Percent Removal, Copper” value in data set [3] worked out at 98.35%.

Turning to `O=C(O)CN(CCN(CC(=O)O)CC(=O)O)CCN(CC(=O)O)CC(=O)O` [Diethylenetriamine-N,N,N′,N″,N′-pentaacetic Acid], the Solubility in data set [4] is 0.46 g/l00 mL at 25 °C.

For the compound `O=C(O)CN(CCN(CC(=O)O)CC(=O)O)CC(=O)O` [EXAMPLE 1, ethylenediamine-N,N,N′,N′-tetraacetic acid], in data set [1], the “Percent Removal, Chromium” value is listed as 84.47%. Moreover, the “Percent Removal, Arsenic” value in data set [2] is given as 93.28%. The “Percent Removal, Copper” value in data set [3] came out at 95.54%.

Turning to `O=C(O)CN(CCN(CC(=O)O)CC(=O)O)CC(=O)O` [EXAMPLE 3, EDTA Free Acid], in data set [1], the “Percent Removal, Chromium” value is 90.09% and 90.89%. Also, in data set [2], the “Percent Removal, Arsenic” value is 96.09%. For the same compound, the “Percent Removal, Copper” value in data set [3] came to 99.75%.
